Values joined by “and” are separate entries in the source; they are usually repeats but may differ in a detail not shown here. Identical values can stand only once.
Key:
[1] = 350.12 K; Liquid; Closed cell (Static) method
[2] = refractive index (Na D-line) (dimensionless); conditions: 298.15 K; 101.33 kPa; Liquid; Standard Abbe refractometry
[3] = wn = mass fraction of the nth substance listed; conditions: 298.1 K, Liquid, Vibrating tube method
[4] = excess molar enthalpy (molar enthalpy of mixing); xn = mol fraction of the nth substance listed; conditions: 130 kPa, Liquid, Calvet calorimetry

O [water]
Conditions	refractive index	vapor or sublimation pressure [kPa]
[1]	–	41.9
[2]	1.3325	–

CC1CCC(=O)O1 (stereo not drawn) [γ-valerolactone] + O
Conditions	excess molar enthalpy	mass density [kg/m3]
[3], 107 kPa, w2 = 0	–	1048.8
[3], 107 kPa, w2 = 0.1004	–	1047
[3], 107 kPa, w2 = 0.2005	–	1044.9
[3], 107 kPa, w2 = 0.3025	–	1041.7
[3], 107 kPa, w2 = 0.4	–	1037.6
[3], 107 kPa, w2 = 0.5	–	1032.9
[3], 107 kPa, w2 = 0.6	–	1027.1
[3], 108 kPa, w2 = 0.6999	–	1021.1
[3], 109 kPa, w2 = 0.7999	–	1013.8
[3], 109 kPa, w2 = 0.8997	–	1005.5
[4], 303.2 K, x2 = 0.097	0.124 kcal/mol	–
[4], 303.2 K, x2 = 0.203	0.197 kcal/mol	–
[4], 303.2 K, x2 = 0.303	0.222 kcal/mol	–
[4], 303.2 K, x2 = 0.4	0.217 kcal/mol	–
[4], 303.2 K, x2 = 0.514	0.194 kcal/mol	–
[4], 303.2 K, x2 = 0.601	0.15 kcal/mol	–
[4], 303.2 K, x2 = 0.7	0.107 kcal/mol	–
[4], 303.2 K, x2 = 0.801	0.0581 kcal/mol	–
[4], 303.2 K, x2 = 0.841	0.0387 kcal/mol	–
[4], 303.2 K, x2 = 0.894	0.0127 kcal/mol	–
[4], 303.2 K, x2 = 0.9	0.0103 kcal/mol	–
[4], 303.2 K, x2 = 0.914	0.00308 kcal/mol and 0.00239 kcal/mol	–
[4], 303.2 K, x2 = 0.93	-0.00437 kcal/mol	–
[4], 303.2 K, x2 = 0.946	-0.0098 kcal/mol	–
[4], 303.2 K, x2 = 0.9815	-0.0182 kcal/mol	–
[4], 303.2 K, x2 = 0.9906	-0.0103 kcal/mol	–
[4], 303.2 K, x2 = 0.9962	-0.00416 kcal/mol	–
[4], 303.2 K, x2 = 0.9981	-0.0021 kcal/mol	–
[4], 322.6 K, x2 = 0.204	0.207 kcal/mol	–
[4], 322.6 K, x2 = 0.401	0.249 kcal/mol	–
[4], 322.6 K, x2 = 0.503	0.232 kcal/mol	–
[4], 322.6 K, x2 = 0.602	0.197 kcal/mol	–
[4], 322.6 K, x2 = 0.7	0.152 kcal/mol	–
[4], 322.6 K, x2 = 0.801	0.097 kcal/mol	–
[4], 322.6 K, x2 = 0.9	0.0402 kcal/mol	–
[4], 322.6 K, x2 = 0.95	0.0116 kcal/mol	–
